Source: patent publication US8217060B2, “Benzimidazole derivatives useful as TRP M8 receptor modulators” (Janssen Pharmaceutica, NV, priority 2009, dated 2012)
Where a name gives a salt, the structure may show the parent alone.

Columns and labels:
[1] = molecular target: T1, canine TRPM8 (Canis lupus familiaris, UniProt Q1A7N1); experiment: In Vitro Canine TRPM8 Functional Assay (icilin-induced intracellular Ca2+ fluorescence, FLIPR/FDSS); format: cell-based; settings: HEK293 cells stably expressing canine TRPM8; for inhibition at 0.2 µM: 0.2 μM test compound, icilin challenge; for IC50: icilin challenge (~80% maximal response), eight-point dose-response
T1 construct: expressed in transfected cells
T1 sequence (Q1A7N1 1-1104): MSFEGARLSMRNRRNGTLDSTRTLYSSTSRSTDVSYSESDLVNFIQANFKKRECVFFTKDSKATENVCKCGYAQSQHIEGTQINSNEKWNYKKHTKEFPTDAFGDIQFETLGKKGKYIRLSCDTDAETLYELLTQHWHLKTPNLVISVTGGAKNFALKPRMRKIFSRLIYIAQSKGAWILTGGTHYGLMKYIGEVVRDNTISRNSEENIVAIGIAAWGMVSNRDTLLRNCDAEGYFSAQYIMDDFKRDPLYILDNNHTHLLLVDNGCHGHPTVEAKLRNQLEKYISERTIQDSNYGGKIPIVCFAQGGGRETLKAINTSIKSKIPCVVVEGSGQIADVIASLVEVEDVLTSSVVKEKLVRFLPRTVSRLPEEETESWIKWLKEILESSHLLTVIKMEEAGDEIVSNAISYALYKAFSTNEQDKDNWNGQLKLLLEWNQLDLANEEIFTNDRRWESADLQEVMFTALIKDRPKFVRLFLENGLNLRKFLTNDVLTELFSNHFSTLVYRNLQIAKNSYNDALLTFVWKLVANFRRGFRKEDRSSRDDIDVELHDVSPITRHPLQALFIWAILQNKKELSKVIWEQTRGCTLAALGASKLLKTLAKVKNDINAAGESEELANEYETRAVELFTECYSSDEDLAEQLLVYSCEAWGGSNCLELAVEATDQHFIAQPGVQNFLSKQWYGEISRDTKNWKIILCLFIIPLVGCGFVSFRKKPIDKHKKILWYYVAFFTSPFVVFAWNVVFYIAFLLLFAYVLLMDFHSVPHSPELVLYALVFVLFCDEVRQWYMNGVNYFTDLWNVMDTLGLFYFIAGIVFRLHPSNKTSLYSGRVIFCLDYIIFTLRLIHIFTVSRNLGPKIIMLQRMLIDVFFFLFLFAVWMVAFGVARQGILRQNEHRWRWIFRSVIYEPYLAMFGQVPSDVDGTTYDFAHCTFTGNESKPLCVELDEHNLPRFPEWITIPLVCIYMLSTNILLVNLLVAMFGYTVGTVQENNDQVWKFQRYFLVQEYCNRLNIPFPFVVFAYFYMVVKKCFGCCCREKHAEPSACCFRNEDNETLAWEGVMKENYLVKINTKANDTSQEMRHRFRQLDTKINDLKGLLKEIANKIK
Method: The functional activity of representative compounds of the formula (I) of the present invention were measured by measuring changes in intracellular calcium concentration using a Ca^2+-sensitive fluorescent dye. The changes in fluorescent signal were monitored by a fluorescence plate reader, either a FLIPR™ (Molecular Devices) or FDSS (Hamamatsu).
HEK293 cells stably expressing canine TRPM8 were routinely grown as monolayers in Dulbecco's minimum essential medium supplemented with 10% FBS, 2 mM L-glutamine, 100 units/mL penicillin, 100 ug/mL streptomycin and 400 μg/mL G418. Cells were maintained in 5% CO2 at 37° C. At 24 hrs prior to assay, cells were seeded in black wall, clear-base poly-D-lysine coated 384-well plates (BD Biosciences, NJ, USA) at a density of 5,000 cells per well in culture medium and grown overnight in 5% CO2 at 37° C. On assay day, growth media was removed and cells were loaded with Calcium 3 Dye (Molecular Devices) for 35 min at 37° C., under 5% CO2 and then for 25 min at room temperature and atmosphere. Subsequently, cells were tested for agonist-induced increases in intracellular Ca^2+ levels using FLIPR™ or FDSS. Cells were challenged with compounds of the formula (I) (at varying concentrations) and intracellular Ca^2+ was measured for 5 min prior to the addition of icilin to all wells to achieve a final concentration that produces approximately an 80% maximal response.
Basal FI was subtracted prior to normalizing data to percent of maximal response. Curves were generated using the average of quadruplicate wells for each data point, were analyzed using nonlinear regression of either sigmoidal dose response or sigmoidal dose response (variable slope). Finally, the EC50 and IC50 values were calculated with the best-fit dose curve determined by GraphPad Prism

[2] = test system: Male Sprague Dawley rats; experiment: Inhibition of Icilin-Induced “Wet-Dog” Shakes in Rats; format: in vivo; settings: 60 min before icilin 3.0 mg/kg i.p., rat
Method: Male Sprague Dawley rats ([…], Charles River Labs, n=6-9/treatment) were used to evaluate the ability of test compounds to block icilin-induced “wet-dog” shakes (WDS). The test compound was administered in 10% hydroxypropyl-β-cyclodextrin (HP β CD), p.o., 60 minutes before icilin. Icilin was then administered in 10% solutol/H2O, at 3.0 mg/kg, i.p. and spontaneous “wet-dog” shakes were counted over a 10 minute period, 10 minutes following the icilin injection.

[3] = test system: Male Sprague Dawley rats; experiment: Chronic Constriction Injury (CCI)-Induced Model of Neuropathic Pain - Acetone-Induced Hypersensitivity; format: in vivo; settings: 10 mg/kg p.o. in 10% HP β CD, rat
Source text: Male Sprague Dawley rats (225-450 g; n=5-8/treatment) were used to evaluate the ability of test compounds to reverse CCI-induced cold hypersensitivity. Four loose ligatures of 4-0 chromic gut were surgically placed around the left sciatic nerve under inhalation anesthesia as described by Bennett et al (BENNETT G. J. et al., “A Peripheral Mononeuropathy in Rat that Produces Disorders of Pain Sensation Like Those Seen in Man”, Pain, 1988, pp. 87-107, Vol 33(1)). Fourteen to 35 days following CCI surgery, subjects were placed in elevated observation chambers containing wire mesh floors and five applications of acetone (0.05 mL/application separated by approximately 5 minutes) were spritzed onto the plantar surface of the paw using a multidose syringe. An abrupt withdrawal or lifting of the paw was considered a positive response. The number of positive responses was recorded for each rat over the five trials. Following baseline withdrawal determinations, test compounds were administered in 10% hydroxypropyl-β-cyclodextrin (HP β CD), p.o. The number of withdrawals was re-determined at 2, 3 and 4 hours after compound administration.

Row | inhibition at 0.2 µM [1] [%] | IC50 [1] [nM] | Structure (SMILES) | % Inhibition of icilin-induced “wet-dog” shakes ([2]; 10 mg/kg p.o.) [%] | % Inhibition of icilin-induced “wet-dog” shakes ([2]; 30 mg/kg p.o.) [%] | % Inhibition (acetone-evoked paw withdrawals, CCI) ([3]; 2 h after administration) [%] | % Inhibition (acetone-evoked paw withdrawals, CCI) ([3]; 3 h after administration) [%] | % Inhibition (acetone-evoked paw withdrawals, CCI) ([3]; 4 h after administration) [%]
1 | 96 | 6 | Fc1cccc(OC(F)(F)F)c1-c1ccc2[nH]c(/C=C/C3CCCCC3)nc2c1 [Compound 59, (E)-2-(2-Cyclohexyl-vinyl)-5-(2-fluoro-6-trifluoromethoxy-phenyl)-1H-benzimidazole] | 75 | – | – | – | –
2 | 94 | 9 | Cl.FC(F)(F)c1ccccc1-c1ccc2[nH]c(/C=C/C3CCCCC3)nc2c1 [Compound 71, 2-(2-Cyclohexyl-vinyl)-5-(2-trifluoromethyl-phenyl)-1H-benzoimidazole hydrochloride] | – | 90 | 91 | 91 | 77
3 | 83 | 9 | FC(F)(F)c1cccc(C(F)(F)F)c1-c1ccc2[nH]c(/C=C/C3CCCCC3)nc2c1 [Compound 58, (E)-5-(2,6-Bis-trifluoromethyl-phenyl)-2-(2-cyclohexyl-vinyl)-1H-benzimidazole] | 30 | – | – | – | –
4 | 93 | 14 | FC(F)(F)Oc1ccccc1-c1ccc2[nH]c(/C=C/C3CCCCC3)nc2c1 [Compound 1, 2-(2-Cyclohexyl-vinyl)-5-(2-trifluoromethoxy-phenyl)-1H-benzimidazole hydrochloride salt] | – | 48 | – | – | –
